In US5028605A, “8-alkylaminoimidazo(1,2-a)pyrazines and derivatives, their preparation and their application in therapy” (l'Universite de Montpellier I, priority 1986, dated 1991):

How the values were obtained:
[1] = system: duodenum; experiment: Antispasmodic activity: barium chloride-induced contraction of isolated rat duodenum (Magnus); details: for ED50 Theo/ED50 product (antispasmodic activity): barium chloride 10^-4 M, isolated rat duodenum, 37° C., mean of 5 to 6 determinations
Experimental: Fragments of duodenum are removed from male rats (200 g), fasted for 24 hours and killed by decapitation, and are mounted, after being washed, in a thermostatted (37° C.) isolated organ cell and maintained in survival in Tyrode's solution according to Magnus's classical technique.
The spasmogenic agent used is barium chloride (10^-4 M).
In the first instance, the spasmogenic agent is added to the nutrient bath and, as soon as the contraction of the organ reaches its maximum, the relaxant agent is added to the medium. Working in relation to a fixed concentration of barium chloride with variable concentrations of relaxant, the ED50 of the latter, capable of reducing the induced contraction by 50%, is determined.
The results expressed in Table IV below show the ratio ED50 Theo/ED50 product, established on the basis of the mean of the results of 5 to 6 determinations per product (ED50theophylline=8×10^-4 M).

[2] = system: histamine-induced bronchoconstriction, guinea pigs; experiment: Antibronchospastic activity: histamine-induced bronchospasm in anesthetized guinea pigs; format: in vivo, guinea pig; details: for ED50 Theo/ED50 product (bronchospasm induced in guinea pigs): intravenous, 30 seconds before histamine, mean of 5 to 8 determinations
Experimental: Guinea pigs of both sexes weighing between 400 and 600 g are anesthetized with ethyl carbamate ([…] i.p.). After tracheotomy, the animal is placed under artificial respiration at a constant flowrate (Palmer pump 1 m1/100 g×60/min). A take-off at the tracheal cannula enables the volume of air to be gaged at each inhalation by means of a Marey drum. Bronchospasm is induced by intraveneous (jugular) administration of histamine. For each animal, the dose of histamine (8 to 12 μg/kg) inducing an increase in the recording trace equal to double its initial value is determined. The dose adopted should provide three identical responses at intervals of 10 minutes.
The test product is administered intraveneously and then, 30 seconds later, histamine is administered again.

[3] = system: uterine horns; experiment: Uterine relaxant activity: spontaneous contractions of isolated rat uterine horn fragments; details: for ED50 Theo/ED50 product (uterine relaxant activity): isolated rat uterine horn, spontaneous contractions, mean of 5 to 10 determinations
Experimental: Female rats (150-180 g) are killed by decapitation 24 hours after the intraperitoneal administration of stilbestrol (0.1 mg/kg). The uterine horns are removed and fragments mounted in a thermostatted (37° C.) isolated organ cell and maintained in survival in oxygenated De Jalon's solution of composition (mM): NaCl (153.8); KCl (5.6); CaCl2 (2.16); NaHCO3 (1.8); dextrose (5.5). One end of the uterine fragment is maintained fixed, while the other is attached to a recording myograph under a tension of the order of 0.5 g. The spontaneous uterine contractions are recorded on a kymograph. The organ is left at rest for 30 minutes and washed three times. The test products are introduced directly into the bath after being dissolved in De Jalon's solution, and the activity measured (ED50) corresponds to the dose capable of reducing the magnitude of the spontaneous contractions by 50%.
The results expressed in Table V below show the ratio ED50 Theo/ED50 product, established on the basis of the mean of the results of 5 to 10 determinations per product. (ED50 theophylline=0.9×10^-3 M)

[4] = system: left atrium; experiment: Cardiac activity: inotropic function, isolated electrically stimulated left atrium; parameters: species or system guinea pig; details: concentration producing increase in magnitude of 0.5 g
Text: (§1) Guinea pigs of both sexes weighing between 300 and 500 g are killed by decapitation. The hearts are rapidly removed and placed in an oxygenated environment (95% O2 -5% CO2) in Chenoweth-Koelle's solution of the following composition (mM): NaCl (120), KCl (5.63), CaCl2 (2.0), dextrose (9.7), MgCl2 (2.0), NaHCO3 (26.0). The right and left atria are then separated from the heart and mounted in an isolated organ cell. The right atrium beats spontaneously and the left atrium is electrically stimulated. The organs under a tension of 1 g are left at rest for two hours and washed every fifteen minutes.
(§2) The products are added directly to the nutrient bath. The right atrium is used for measuring the modifications of rate (chronotropic function) whereas the left atrium indicates the modifications brought about in the contractile force (inotropic function).
For the inotropic function, the concentration capable of producing an increase in magnitude of 0.5 g with respect to the basic contraction is measured.

[5] = system: right atrium; experiment: Cardiac activity: chronotropic function, isolated spontaneously beating right atrium; parameters: species or system guinea pig; details: concentration producing 20% increase in rate
Text: as §1, §2
For the chronotropic function, the concentration capable of producing a 20% increase in the basic value of the rate is determined.

[6] = system: mice; experiment: Motor activity: spontaneous activity in mice (neurosedative effect); format: in vivo, mouse; details: male mice, 50 minutes
Experimental: The measurement of the neurosedative effect is based on the test of activity measurements in mice. […] Five minutes after the administration, the animals are placed in activity-measuring cages, which record their movements digitally by means of the interruption of beams of light. The results are recorded in Table IX and expressed as the percentage variation (increase or decrease ) in activity compared with the controls during a period of 50 minutes following the administration.

[7] = system: guinea pig trachea; experiment: Isolated guinea pig trachea: anti-contractional activity against carbachol; details: for EC50 Theo/EC50 product (anti-contractional activity, trachea): carbachol 10^-4 M, isolated guinea pig trachea, mean of 5 to 6 determinations
Experimental: Guinea pigs of both sexes weighing on average 400 to 600 g are sacrificed, and the tracheas are removed and placed at 37° C. in an oxygenated environment (95% O2 -5% CO2) in Krebs fluid of the following composition (mM): NaCl (116), MgSO4 (1.2), KCl (3.7), CaCl2 (2.6), KH2 PO4 (2.2), NaHCO3 (24.9), glucose (10). The tracheal segments are then mounted horizontally between two hooks, one of which is fixed to the base of the isolated organ cell and the other is attached to a myograph under a tension of 0.5 g. The organ is left at rest for one hour and is subjected to four washes. The contraction-inducing reagent (carbachol) is added at a concentration (10^-4 M) greater than the concentration giving the maximum effect. After stabilization of the contractional effect, gradually increasing accumulative amounts of the test products are added to the cell. The bronchodilatory effect is measured as the percentage inhibition of the maximal contraction and EC50 represents the concentration inhibiting this concentration by 50%.

Structure (SMILES) | EC50 Theo/EC50 product (anti-contractional activity, trachea) [7] | ED50 Theo/ED50 product (antispasmodic activity) [1] | ED50 Theo/ED50 product (bronchospasm induced in guinea pigs) [2] | ED50 Theo/ED50 product (uterine relaxant activity) [3] | ED Theo/ED Product, inotropic function [4] | ED Theo/ED Product, chronotropic function [5] | spontaneous activity - % variation compared with the controls, increase (.uparw.) ([6]; 55 μmol/kg intraperitoneally) [%] | spontaneous activity - % variation compared with the controls, decrease (.dwnarw.) ([6]; 166 μmol/kg intraperitoneally) [%] | EC50 ([7]; Cavia porcellus, 50% inhibition of maximal carbachol contraction, read-out: EC50 Theo (anti-contractional activity, trachea)) [µM] | EC50 ([1]; Rattus norvegicus, reduces barium chloride-induced contraction by 50%, read-out: ED50 theophylline (antispasmodic)) [µM] | ED50 ([2]; Cavia porcellus, iv, read-out: ED50 Theo (bronchospasm induced in guinea pigs)) [µmol/kg] | EC50 ([3]; Rattus norvegicus, reduces magnitude of spontaneous contractions by 50%, read-out: ED50 theophylline (uterine relaxant)) [µM] | spontaneous activity - % variation compared with the controls, increase (.uparw.) ([6]; 166 μmol/kg intraperitoneally) [%] | spontaneous activity - % variation compared with the controls, decrease (.dwnarw.) ([6]; 55 μmol/kg intraperitoneally) [%]
CCOC(=O)c1cn2ccnc(N)c2n1 [Compound 17, ethyl 8-aminoimidazo[1,2-a]pyrazine-2-carboxylate] |  | 13 | 1.1 | 2.6 | < 1 | < 1 | 28 | 17 |  |  |  |  |  | 
Cn1c(=O)c2[nH]cnc2n(C)c1=O [theophylline, reference compound] |  |  |  |  |  |  | 130 |  | 1000 | 800 | 43 | 900 | 170 | 
CNc1nccn2c(Br)cnc12 [Compound 6, 3-Bromo-8-methylaminoimidazo[1,2-a]pyrazine] | 12.5 | 32 | 2 | 9 | 5 | 6 |  | 57 |  |  |  |  |  | 25

The next lines start with results.

EC50 Theo/EC50 product (anti-contractional activity, trachea) [7] | Structure (SMILES) | ED50 Theo/ED50 product (antispasmodic activity) [1] | ED50 Theo/ED50 product (bronchospasm induced in guinea pigs) [2] | ED50 Theo/ED50 product (uterine relaxant activity) [3] | ED Theo/ED Product, inotropic function [4] | ED Theo/ED Product, chronotropic function [5] | spontaneous activity - % variation compared with the controls, increase (.uparw.) ([6]; 55 μmol/kg intraperitoneally) [%] | spontaneous activity - % variation compared with the controls, decrease (.dwnarw.) ([6]; 166 μmol/kg intraperitoneally) [%] | EC50 ([7]; Cavia porcellus, 50% inhibition of maximal carbachol contraction, read-out: EC50 Theo (anti-contractional activity, trachea)) [µM] | EC50 ([1]; Rattus norvegicus, reduces barium chloride-induced contraction by 50%, read-out: ED50 theophylline (antispasmodic)) [µM] | ED50 ([2]; Cavia porcellus, iv, read-out: ED50 Theo (bronchospasm induced in guinea pigs)) [µmol/kg] | EC50 ([3]; Rattus norvegicus, reduces magnitude of spontaneous contractions by 50%, read-out: ED50 theophylline (uterine relaxant)) [µM] | spontaneous activity - % variation compared with the controls, increase (.uparw.) ([6]; 166 μmol/kg intraperitoneally) [%] | spontaneous activity - % variation compared with the controls, decrease (.dwnarw.) ([6]; 55 μmol/kg intraperitoneally) [%]
8.3 | CNc1nc(Br)cn2ccnc12 [Compound 9, 6-bromo-8-methylaminoimidazo[1,2-a]pyrazine] | 20 | 5.4 | 5.6 | 50 | 25 |  | 83 |  |  |  |  |  | 74
11.3 | Nc1nc(Br)cn2ccnc12 [Compound 8, 8-amino-6-bromoimidazo[1,2-a]pyrazine] | 32 | 4 | 3 | 10 | 2 |  | 83 |  |  |  |  |  | 53
5 | CCNc1nc(Br)cn2ccnc12 [Compound 10, 6-bromo-8-ethylaminoimidazo[1,2-a]pyrazine] | 40 | 2 | 7.2 | 4 | 15 |  | 73 |  |  |  |  |  | 13
